Experimental data published in ChEMBL document CHEMBL5291721, “A preclinical secondary pharmacology resource illuminates target-adverse drug reaction associations of marketed drugs” (Nat Commun, 2023).

Assays:
[1] = molecular target: T1, Progesterone receptor (Homo sapiens, UniProt P06401); type: functional
T1 sequence (P06401 whole entry): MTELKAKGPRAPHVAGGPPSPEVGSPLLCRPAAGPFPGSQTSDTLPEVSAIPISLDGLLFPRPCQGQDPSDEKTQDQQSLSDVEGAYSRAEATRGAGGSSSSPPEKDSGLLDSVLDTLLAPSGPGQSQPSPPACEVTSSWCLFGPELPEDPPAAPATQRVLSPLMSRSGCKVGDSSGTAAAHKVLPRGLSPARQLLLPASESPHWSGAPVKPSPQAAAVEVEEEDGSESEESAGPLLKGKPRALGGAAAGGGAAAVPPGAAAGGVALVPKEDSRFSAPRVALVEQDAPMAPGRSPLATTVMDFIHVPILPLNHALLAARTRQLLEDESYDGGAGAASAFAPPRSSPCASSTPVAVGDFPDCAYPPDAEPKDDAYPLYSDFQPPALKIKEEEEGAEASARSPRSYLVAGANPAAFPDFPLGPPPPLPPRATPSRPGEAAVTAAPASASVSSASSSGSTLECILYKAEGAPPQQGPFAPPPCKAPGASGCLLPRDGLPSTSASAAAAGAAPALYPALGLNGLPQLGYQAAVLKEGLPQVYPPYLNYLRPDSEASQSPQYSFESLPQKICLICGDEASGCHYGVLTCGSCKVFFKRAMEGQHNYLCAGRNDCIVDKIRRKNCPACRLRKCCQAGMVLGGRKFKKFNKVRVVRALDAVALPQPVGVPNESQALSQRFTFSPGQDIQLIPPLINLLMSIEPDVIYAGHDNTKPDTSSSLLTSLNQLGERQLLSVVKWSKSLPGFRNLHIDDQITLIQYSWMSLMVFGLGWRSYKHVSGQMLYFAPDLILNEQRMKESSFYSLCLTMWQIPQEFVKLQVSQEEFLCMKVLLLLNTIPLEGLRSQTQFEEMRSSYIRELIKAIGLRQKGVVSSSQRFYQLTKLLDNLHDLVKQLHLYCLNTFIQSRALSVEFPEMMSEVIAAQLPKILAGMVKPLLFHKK

[2] = molecular target: Histamine H3 receptor (Homo sapiens, UniProt Q9Y5N1)
[3] = molecular target: T2, Neuropeptide Y receptor type 1 (Homo sapiens, UniProt P25929); conditions: read-out: AC50
T2 sequence (P25929 whole entry): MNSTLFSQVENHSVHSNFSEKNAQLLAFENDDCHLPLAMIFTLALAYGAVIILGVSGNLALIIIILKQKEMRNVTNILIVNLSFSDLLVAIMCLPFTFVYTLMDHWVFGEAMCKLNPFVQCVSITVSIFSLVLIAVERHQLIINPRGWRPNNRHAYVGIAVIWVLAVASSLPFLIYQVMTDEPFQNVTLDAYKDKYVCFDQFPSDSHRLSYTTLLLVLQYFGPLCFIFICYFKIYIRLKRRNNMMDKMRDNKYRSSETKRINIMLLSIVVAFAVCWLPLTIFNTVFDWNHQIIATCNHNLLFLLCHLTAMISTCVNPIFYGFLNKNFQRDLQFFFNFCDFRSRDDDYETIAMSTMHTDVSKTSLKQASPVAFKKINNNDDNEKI

[4] = molecular target: Adenosine receptor A2a (Homo sapiens, UniProt P29274)
[5] = molecular target: Melanocortin receptor 4 (Homo sapiens, UniProt P32245)
[6] = molecular target: T3, Adenosine receptor A1 (Homo sapiens, UniProt P30542)
T3 sequence (P30542 whole entry): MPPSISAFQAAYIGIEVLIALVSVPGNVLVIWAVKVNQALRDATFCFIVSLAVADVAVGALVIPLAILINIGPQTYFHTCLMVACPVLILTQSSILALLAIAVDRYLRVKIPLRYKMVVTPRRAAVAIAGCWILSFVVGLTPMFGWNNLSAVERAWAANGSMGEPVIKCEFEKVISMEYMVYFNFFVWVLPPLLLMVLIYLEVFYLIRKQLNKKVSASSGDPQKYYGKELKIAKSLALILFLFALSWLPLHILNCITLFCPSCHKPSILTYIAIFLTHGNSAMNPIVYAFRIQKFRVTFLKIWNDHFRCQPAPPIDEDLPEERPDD

[7] = molecular target: T4, Alpha-2A adrenergic receptor (Homo sapiens, UniProt P08913); type: functional, cell-based
T4 sequence (P08913 whole entry): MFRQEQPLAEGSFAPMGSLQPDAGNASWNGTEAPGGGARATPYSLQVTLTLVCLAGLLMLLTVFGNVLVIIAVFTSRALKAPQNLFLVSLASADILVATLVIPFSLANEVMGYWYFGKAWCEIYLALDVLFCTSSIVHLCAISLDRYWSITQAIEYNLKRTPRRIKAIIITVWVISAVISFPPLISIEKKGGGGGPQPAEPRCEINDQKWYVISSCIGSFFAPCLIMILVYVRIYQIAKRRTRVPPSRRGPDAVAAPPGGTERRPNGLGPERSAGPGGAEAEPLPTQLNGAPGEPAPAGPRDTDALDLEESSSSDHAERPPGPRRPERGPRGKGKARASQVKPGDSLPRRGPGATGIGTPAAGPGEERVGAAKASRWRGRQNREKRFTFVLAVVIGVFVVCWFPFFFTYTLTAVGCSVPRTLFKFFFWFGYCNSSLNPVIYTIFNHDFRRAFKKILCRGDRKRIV

[8] = molecular target: Vasopressin V2 receptor (Homo sapiens, UniProt P30518)
[9] = molecular target: cGMP-inhibited 3',5'-cyclic phosphodiesterase 3A (Homo sapiens, UniProt Q14432); type: functional
[10] = molecular target: T5, Adenosine receptor A3 (Homo sapiens, UniProt P0DMS8)
T5 sequence (P0DMS8 whole entry): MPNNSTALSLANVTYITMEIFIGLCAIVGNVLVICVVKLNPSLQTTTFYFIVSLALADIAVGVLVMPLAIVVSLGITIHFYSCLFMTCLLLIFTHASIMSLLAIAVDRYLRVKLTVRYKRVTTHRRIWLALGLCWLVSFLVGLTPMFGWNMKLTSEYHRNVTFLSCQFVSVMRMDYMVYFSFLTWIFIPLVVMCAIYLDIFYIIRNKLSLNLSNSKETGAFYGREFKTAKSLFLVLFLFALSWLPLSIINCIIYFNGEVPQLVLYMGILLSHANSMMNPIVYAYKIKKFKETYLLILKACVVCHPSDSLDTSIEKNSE
Further: assay procedure not described here.

Sequence of Vasopressin V2 receptor (P30518 whole entry): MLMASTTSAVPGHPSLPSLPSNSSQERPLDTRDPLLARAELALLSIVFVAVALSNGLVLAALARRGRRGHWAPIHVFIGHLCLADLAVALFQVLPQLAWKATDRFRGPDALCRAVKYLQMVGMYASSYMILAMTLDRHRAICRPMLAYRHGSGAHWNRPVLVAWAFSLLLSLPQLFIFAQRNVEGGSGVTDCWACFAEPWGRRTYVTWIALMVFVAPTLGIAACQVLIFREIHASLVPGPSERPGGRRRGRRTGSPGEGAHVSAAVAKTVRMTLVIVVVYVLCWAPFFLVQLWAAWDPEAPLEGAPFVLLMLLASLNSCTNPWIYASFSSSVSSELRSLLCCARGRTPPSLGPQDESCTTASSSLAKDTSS
Sequence of Adenosine receptor A2a (P29274 whole entry): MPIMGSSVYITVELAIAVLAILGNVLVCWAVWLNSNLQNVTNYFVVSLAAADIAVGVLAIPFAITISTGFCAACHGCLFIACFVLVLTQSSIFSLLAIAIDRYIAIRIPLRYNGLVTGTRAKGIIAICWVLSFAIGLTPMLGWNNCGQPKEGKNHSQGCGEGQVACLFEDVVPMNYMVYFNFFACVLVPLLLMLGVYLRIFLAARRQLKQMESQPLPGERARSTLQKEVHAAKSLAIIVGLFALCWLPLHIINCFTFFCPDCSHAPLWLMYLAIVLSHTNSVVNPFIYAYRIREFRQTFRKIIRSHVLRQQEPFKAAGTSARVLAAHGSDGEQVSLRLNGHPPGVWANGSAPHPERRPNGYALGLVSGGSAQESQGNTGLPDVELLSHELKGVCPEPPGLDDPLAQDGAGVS
Sequence of Histamine H3 receptor (Q9Y5N1 whole entry): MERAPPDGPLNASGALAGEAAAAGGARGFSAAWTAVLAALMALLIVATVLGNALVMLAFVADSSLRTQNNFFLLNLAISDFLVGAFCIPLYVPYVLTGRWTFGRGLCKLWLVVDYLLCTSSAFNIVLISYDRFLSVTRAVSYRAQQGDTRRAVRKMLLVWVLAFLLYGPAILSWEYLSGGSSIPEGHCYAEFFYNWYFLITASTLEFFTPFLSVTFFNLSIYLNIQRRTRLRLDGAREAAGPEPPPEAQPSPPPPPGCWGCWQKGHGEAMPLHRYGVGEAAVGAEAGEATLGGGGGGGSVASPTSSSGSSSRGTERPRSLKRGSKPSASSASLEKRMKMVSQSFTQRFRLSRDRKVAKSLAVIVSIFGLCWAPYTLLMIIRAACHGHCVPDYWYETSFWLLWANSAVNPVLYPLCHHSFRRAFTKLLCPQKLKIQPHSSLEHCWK
Sequence of Melanocortin receptor 4 (P32245 whole entry): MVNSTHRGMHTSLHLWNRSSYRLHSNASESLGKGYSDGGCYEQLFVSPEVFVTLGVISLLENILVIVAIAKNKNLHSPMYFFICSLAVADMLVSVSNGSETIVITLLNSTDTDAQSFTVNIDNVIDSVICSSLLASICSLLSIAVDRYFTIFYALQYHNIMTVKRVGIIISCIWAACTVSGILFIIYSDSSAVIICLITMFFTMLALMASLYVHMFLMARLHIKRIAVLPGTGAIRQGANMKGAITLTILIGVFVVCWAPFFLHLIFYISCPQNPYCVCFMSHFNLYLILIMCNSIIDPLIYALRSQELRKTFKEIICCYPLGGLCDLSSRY
Sequence of cGMP-inhibited 3',5'-cyclic phosphodiesterase 3A (Q14432 whole entry): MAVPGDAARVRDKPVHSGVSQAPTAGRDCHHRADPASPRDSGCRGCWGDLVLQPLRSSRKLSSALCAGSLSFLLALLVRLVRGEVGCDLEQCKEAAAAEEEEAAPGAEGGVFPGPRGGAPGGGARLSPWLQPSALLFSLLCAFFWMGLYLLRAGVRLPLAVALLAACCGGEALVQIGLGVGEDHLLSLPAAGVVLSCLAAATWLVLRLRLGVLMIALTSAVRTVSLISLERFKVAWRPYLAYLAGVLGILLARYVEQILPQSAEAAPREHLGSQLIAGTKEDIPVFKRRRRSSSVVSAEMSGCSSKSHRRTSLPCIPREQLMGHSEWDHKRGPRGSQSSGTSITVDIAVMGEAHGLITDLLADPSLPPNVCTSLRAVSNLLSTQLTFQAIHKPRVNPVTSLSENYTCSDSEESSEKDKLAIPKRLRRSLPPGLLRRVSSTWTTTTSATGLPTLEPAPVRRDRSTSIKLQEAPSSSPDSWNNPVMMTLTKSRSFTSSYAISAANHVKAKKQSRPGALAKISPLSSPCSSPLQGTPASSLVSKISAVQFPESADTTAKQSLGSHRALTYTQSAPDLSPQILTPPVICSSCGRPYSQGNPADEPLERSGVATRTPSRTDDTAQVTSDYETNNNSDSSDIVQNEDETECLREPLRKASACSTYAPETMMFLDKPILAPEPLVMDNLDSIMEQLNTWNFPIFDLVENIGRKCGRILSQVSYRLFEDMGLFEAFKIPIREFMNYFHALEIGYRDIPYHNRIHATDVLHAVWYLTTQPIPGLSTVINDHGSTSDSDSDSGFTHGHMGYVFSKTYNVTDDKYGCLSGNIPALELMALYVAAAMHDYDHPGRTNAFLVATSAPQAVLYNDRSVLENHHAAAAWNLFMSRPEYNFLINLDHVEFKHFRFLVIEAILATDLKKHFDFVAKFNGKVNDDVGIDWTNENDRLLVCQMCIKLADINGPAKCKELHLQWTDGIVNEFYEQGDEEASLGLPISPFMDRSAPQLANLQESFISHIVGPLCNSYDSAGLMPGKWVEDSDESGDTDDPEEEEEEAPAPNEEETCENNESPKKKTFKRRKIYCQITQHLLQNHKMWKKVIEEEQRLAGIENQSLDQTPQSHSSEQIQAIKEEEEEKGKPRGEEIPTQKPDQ

SMILES | AC50 [1] [µM] | AC50 [2] [µM] | AC50 [3] [µM] | AC50 [4] [µM] | AC50 [5] [µM] | AC50 [6] [µM] | AC50 [7] [µM] | AC50 [8] [µM] | AC50 [9] [µM] | AC50 [10] [µM]
CC(C(=O)O)c1ccc2c(c1)[nH]c1ccc(Cl)cc12 (stereo not given) [CARPROFEN] | > 30 | > 30 | > 10 | > 30 | > 10 | > 30 | > 10 | > 30 | > 30 | –
COc1ccccc1OCCNCC(O)COc1cccc2[nH]c3ccccc3c12 (stereo not given) [CARVEDILOL] | > 30 | > 30 | 25.3 | > 30 | 29.9 | > 30 | 3.09 | > 30 | > 30 | –
CCCN(CCC)C(=O)Cc1c(-c2ccc(Cl)cc2)nc2ccc(Cl)cn12 [ALPIDEM] | > 30 | > 30 | > 30 | > 30 | > 30 | > 30 | > 30 | > 30 | > 30 | –
CC(C)Cc1ccc(C(C)C(=O)O)cc1 (stereo not given) [IBUPROFEN] | – | > 10 | > 30 | > 30 | > 30 | > 30 | > 10 | > 30 | > 30 | > 30
C=CC[C@@H]1/C=C(\C)C[C@H](C)C[C@H](OC)[C@H]2O[C@@](O)(C(=O)C(=O)N3CCCC[C@H]3C(=O)O[C@H](/C(C)=C/[C@@H]3CC[C@@H](O)[C@H](OC)C3)[C@H](C)[C@@H](O)CC1=O)[C@H](C)C[C@@H]2OC [TACROLIMUS ANHYDROUS] | > 30 | > 30 | > 30 | > 30 | > 30 | > 30 | > 10 | > 30 | > 30 | –
Cc1onc(-c2ccccc2)c1-c1ccc(S(N)(=O)=O)cc1 [VALDECOXIB] | > 30 | > 30 | > 30 | > 30 | > 30 | 27.7 | > 10 | > 30 | > 30 | 23.8
COc1ccccc1Oc1c(NS(=O)(=O)c2ccc(C(C)(C)C)cc2)nc(-c2ncccn2)nc1OCCO [BOSENTAN] | > 30 | > 10 | > 30 | > 30 | > 30 | > 30 | > 10 | > 30 | > 30 | –
O=C1CCc2cc(OCCCCc3nnnn3C3CCCCC3)ccc2N1 [CILOSTAZOL] | > 30 | > 30 | > 30 | > 30 | > 30 | > 30 | > 30 | > 30 | 0.424 | –
COc1ccc(CC2c3cc(OC)c(OC)cc3CC[N+]2(C)CCC(=O)OCCCCCOC(=O)CC[N+]2(C)CCc3cc(OC)c(OC)cc3C2Cc2ccc(OC)c(OC)c2)cc1OC (stereo not given) | > 30 | > 30 | > 30 | > 30 | > 30 | > 30 | 3.6 | > 30 | > 30 | –
C[C@]12C=CC(=O)N[C@@H]1CC[C@@H]1[C@@H]2CC[C@]2(C)[C@@H](C(=O)Nc3cc(C(F)(F)F)ccc3C(F)(F)F)CC[C@@H]12 [DUTASTERIDE] | > 10 | – | > 10 | > 10 | > 10 | > 10 | > 10 | > 10 | > 30 | –
N[C@@H](CC(=O)N1CCn2c(nnc2C(F)(F)F)C1)Cc1cc(F)c(F)cc1F [SITAGLIPTIN] | > 30 | > 30 | > 10 | > 30 | > 10 | > 30 | > 30 | – | > 30 | –
CC(C)N(CCC(C(N)=O)(c1ccccc1)c1ccccn1)C(C)C (stereo not given) [DISOPYRAMIDE] | 27 | > 30 | > 30 | > 30 | > 30 | > 30 | > 10 | > 30 | 5.4 | –
CC(N)C12CC3CC(CC(C3)C1)C2 (stereo not given) [RIMANTADINE] | > 10 | – | > 10 | > 10 | > 10 | > 10 | > 10 | > 10 | > 30 | –
